In ChEMBL document CHEMBL1201862, “PubChem BioAssay data set” (2004):
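In this assay, cells in 96-well plates receive the compound at five concentrations for 48 hours. Endpoints are linearly interpolated between the surrounding concentrations. Abbreviation: GI50, concentration required for 50% inhibition of growth.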 Calls of active or inactive are those of the source. No stated cut-off is given here; in the data, active = GI50 up to about 1.1 µM and inactive = higher.

What was measured:
Experiment in all cases: DTP human tumour cell line panel, 48 h
[1] = system: HOP-62
[2] = system: SNB-19
[3] = system: HCT-116
[4] = system: NCI/ADR-RES
[5] = system: NCI-H226
[6] = system: SW-620
[7] = system: HCT-15
[8] = system: TK-10
[9] = system: HOP-92
[10] = system: RPMI-8226
[11] = system: MCF7
[12] = system: NCI-H23
[13] = system: MDA-MB-435
[14] = system: NCI-H460
[15] = system: SF-539
[16] = system: A498
[17] = system: SNB-75
[18] = system: LOX IMVI
[19] = system: MOLT-4
[20] = system: CAKI-1

SMILES	GI50 [1]	GI50 [2]	GI50 [3]	GI50 [4]	GI50 [5]	GI50 [6]	GI50 [7] [µM]	GI50 [8]	GI50 [9]	GI50 [10]	GI50 [11]	GI50 [12]	GI50 [13]	GI50 [14]	GI50 [15]	GI50 [16]	GI50 [17]	GI50 [18]	GI50 [19]	GI50 [20]
O=C(c1ccsc1)c1nccc2c1cnc1ccccc12	25.5 µM (inactive)	53.5 µM (inactive)	62.1 µM (inactive)	> 100 µM (inactive)	34.8 µM (inactive)	> 100 µM (inactive)	> 100	42.6 µM (inactive)	22.5 µM (inactive)	> 100 µM (inactive)	47.2 µM (inactive)	45.3 µM (inactive)	> 100 µM (inactive)	89.9 µM (inactive)	> 100 µM (inactive)	75 µM (inactive)	30.5 µM (inactive)	> 100 µM (inactive)	4.44 µM (inactive)	> 100 µM (inactive)
O=[N+]([O-])c1cccc2nc3ccccc3c(NCCc3cccc[n+]3[O-])c12	< 0.0177 µM (active)	0.128 µM (active)	< 0.01 µM (active)	0.608 µM (active)	0.0738 µM (active)	< 0.01 µM (active)	< 0.0138	< 0.0486 µM (active)	< 0.0183 µM (active)	0.0123 µM (active)	< 0.0116 µM (active)	< 0.0115 µM (active)	< 0.0116 µM (active)	< 0.0141 µM (active)	0.0407 µM (active)	0.0475 µM (active)	< 0.0438 µM (active)	0.0299 µM (active)	< 0.0144 µM (active)	< 0.0402 µM (active)
O=C1C=CC(=O)c2c1cc([N+](=O)[O-])c1ccoc21	16.5 µM (inactive)	21.5 µM (inactive)	6.03 µM (inactive)	22.6 µM (inactive)	26.6 µM (inactive)	2.36 µM (inactive)	23.3	2.18 µM (inactive)	1.96 µM (inactive)	4.37 µM (inactive)	14.3 µM (inactive)	22.6 µM (inactive)	11.7 µM (inactive)	18.2 µM (inactive)	27.2 µM (inactive)	15.5 µM (inactive)	26.1 µM (inactive)	9.66 µM (inactive)	0.942 µM (active)	1.6 µM (inactive)
NC(CC(=O)O)(Cc1ccccc1)C(=O)O (stereo not given)	> 100 µM (inactive)	> 100 µM (inactive)	> 100 µM (inactive)	> 100 µM (inactive)	> 100 µM (inactive)	> 100 µM (inactive)	> 100	> 100 µM (inactive)	> 100 µM (inactive)	> 100 µM (inactive)	> 100 µM (inactive)	> 100 µM (inactive)	> 100 µM (inactive)	> 100 µM (inactive)	> 100 µM (inactive)	> 100 µM (inactive)	> 100 µM (inactive)	> 100 µM (inactive)	> 100 µM (inactive)	> 100 µM (inactive)
Clc1ccc(Nc2nn3c(CCCCCCCCc4nnc5sc(Nc6ccc(Cl)cc6)nn45)nnc3s2)cc1	38.3 µM (inactive)	25.1 µM (inactive)	> 100 µM (inactive)	> 100 µM (inactive)	> 100 µM (inactive)	> 100 µM (inactive)	> 100	29.4 µM (inactive)	> 100 µM (inactive)	> 100 µM (inactive)	> 100 µM (inactive)	> 100 µM (inactive)	> 100 µM (inactive)	> 100 µM (inactive)	> 100 µM (inactive)	> 100 µM (inactive)	23.3 µM (inactive)	> 100 µM (inactive)	90.6 µM (inactive)	> 100 µM (inactive)
CC(=O)O[C@H]1CC[C@H]2[C@@H]3CCC4=CC(=O)C=C[C@]4(O)[C@H]3CC[C@]12C	> 100 µM (inactive)	71.6 µM (inactive)	21.9 µM (inactive)	12 µM (inactive)	16.6 µM (inactive)	25.5 µM (inactive)	29.6	> 100 µM (inactive)	23.9 µM (inactive)	3.47 µM (inactive)	26.7 µM (inactive)	9.91 µM (inactive)	16.4 µM (inactive)	32.2 µM (inactive)	31.3 µM (inactive)	42.8 µM (inactive)	14.7 µM (inactive)	12.9 µM (inactive)	8 µM (inactive)	> 55.1 µM (inactive)
O=C(SC1=NCCN1)c1cccc2ccccc12	55 µM (inactive)	> 100 µM (inactive)	41 µM (inactive)	31.6 µM (inactive)	32.3 µM (inactive)	33.8 µM (inactive)	48.6	> 100 µM (inactive)	42.1 µM (inactive)	27.8 µM (inactive)	50.9 µM (inactive)	63.5 µM (inactive)	53.5 µM (inactive)	62.5 µM (inactive)	> 100 µM (inactive)	> 100 µM (inactive)	22.8 µM (inactive)	> 100 µM (inactive)	16.9 µM (inactive)	> 100 µM (inactive)
CCOC(=O)C(=NN(C)c1ncccc1N)C(=O)OCC	> 100 µM (inactive)	> 100 µM (inactive)	26.4 µM (inactive)	53.3 µM (inactive)	21.6 µM (inactive)	27.6 µM (inactive)	32.9	79.3 µM (inactive)	23.3 µM (inactive)	30.3 µM (inactive)	20.5 µM (inactive)	45.5 µM (inactive)	19.3 µM (inactive)	> 100 µM (inactive)	22.9 µM (inactive)	39.8 µM (inactive)	> 100 µM (inactive)	18.3 µM (inactive)	21.5 µM (inactive)	33.3 µM (inactive)
O=C(O)COc1cc(-c2ccccc2)nc2ccc(F)cc12	> 100 µM (inactive)	> 100 µM (inactive)	> 100 µM (inactive)	> 100 µM (inactive)	> 100 µM (inactive)	> 100 µM (inactive)	> 100	0.0261 µM (active)	> 100 µM (inactive)	> 100 µM (inactive)	> 100 µM (inactive)	> 100 µM (inactive)	> 100 µM (inactive)	> 100 µM (inactive)	> 100 µM (inactive)	> 100 µM (inactive)	> 100 µM (inactive)	> 100 µM (inactive)	> 100 µM (inactive)	> 100 µM (inactive)
C=C1C[C@@H]2O[C@H]3[C@H]4[C@@H](C[C@@H](C)[C@@H](OC(C)=O)[C@H]42)[C@@H](C)CO[C@@]3(C)[C@H](OC(=O)CCCCCCC)CC1=O	16 µM (inactive)	26.5 µM (inactive)	15.1 µM (inactive)	17.9 µM (inactive)	21.2 µM (inactive)	15.2 µM (inactive)	14.1	17.1 µM (inactive)	> 10 µM (inactive)	2.64 µM (inactive)	18.5 µM (inactive)	20.6 µM (inactive)	16.5 µM (inactive)	11.9 µM (inactive)	22 µM (inactive)	17.2 µM (inactive)	12.1 µM (inactive)	16.5 µM (inactive)	18.7 µM (inactive)	19.4 µM (inactive)
CC(=O)NNc1nc(C)c(C(/C=C/c2cccc([N+](=O)[O-])c2)=N/NC(=S)NN)s1	91 µM (inactive)	> 100 µM (inactive)	> 100 µM (inactive)	> 100 µM (inactive)	> 100 µM (inactive)	> 100 µM (inactive)	> 100	> 100 µM (inactive)	> 100 µM (inactive)	> 100 µM (inactive)	> 100 µM (inactive)	> 100 µM (inactive)	> 100 µM (inactive)	> 100 µM (inactive)	> 100 µM (inactive)	> 100 µM (inactive)	> 100 µM (inactive)	> 100 µM (inactive)	> 100 µM (inactive)	> 100 µM (inactive)
O=C1CCCNn2c(nc3ncccc3c2=O)N1	> 100 µM (inactive)	> 100 µM (inactive)	> 100 µM (inactive)	> 100 µM (inactive)	> 100 µM (inactive)	> 100 µM (inactive)	> 100	> 100 µM (inactive)	> 100 µM (inactive)	> 100 µM (inactive)	> 100 µM (inactive)	> 100 µM (inactive)	> 100 µM (inactive)	> 100 µM (inactive)	> 100 µM (inactive)	> 100 µM (inactive)	30.2 µM (inactive)	> 100 µM (inactive)	> 100 µM (inactive)	> 100 µM (inactive)
C[N+](C)(C)CC(=O)N/N=C(\C(=O)NC1=C(Cl)C(=O)c2ccccc2C1=O)C(C#N)c1nc(-c2ccc([N+](=O)[O-])cc2)cs1 (stereo not given)	12.7 µM (inactive)	12.9 µM (inactive)	5.78 µM (inactive)	11.7 µM (inactive)	11.4 µM (inactive)	8.15 µM (inactive)	5.36	31 µM (inactive)	13 µM (inactive)	6.53 µM (inactive)	5.41 µM (inactive)	2.51 µM (inactive)	1.87 µM (inactive)	4.31 µM (inactive)	8.38 µM (inactive)	16.9 µM (inactive)	7.23 µM (inactive)	1.69 µM (inactive)	13.4 µM (inactive)	26.2 µM (inactive)
O=C(O)CP(=O)(O)O	> 100 µM (inactive)	> 100 µM (inactive)	> 100 µM (inactive)	> 100 µM (inactive)	> 100 µM (inactive)	> 100 µM (inactive)	> 100	> 100 µM (inactive)	> 100 µM (inactive)	> 100 µM (inactive)	> 100 µM (inactive)	> 100 µM (inactive)	> 100 µM (inactive)	> 100 µM (inactive)	> 100 µM (inactive)	> 100 µM (inactive)	> 100 µM (inactive)	> 100 µM (inactive)	> 100 µM (inactive)	> 100 µM (inactive)
